Here are results for 1 molecule from patent publication US11752188B2, “Compositions and methods for nutritional supplements” (DailyColors Health Inc., priority 2020, dated 2023).

Molecules are shown by their SMILES. Read-outs that look alike come from different tables or passages of the source.

Usually inhibition stands for the drop in the measured response relative to a control, in per cent.

The target of this assay is T1, recombinant human NAMPT (Homo sapiens, UniProt P43490).
T1 construct: purchased 91004
The assay can be described thus: NAMPT in vitro enzymatic fluorescence assay. In kind it is biochemical.

T1 sequence (P43490 whole entry): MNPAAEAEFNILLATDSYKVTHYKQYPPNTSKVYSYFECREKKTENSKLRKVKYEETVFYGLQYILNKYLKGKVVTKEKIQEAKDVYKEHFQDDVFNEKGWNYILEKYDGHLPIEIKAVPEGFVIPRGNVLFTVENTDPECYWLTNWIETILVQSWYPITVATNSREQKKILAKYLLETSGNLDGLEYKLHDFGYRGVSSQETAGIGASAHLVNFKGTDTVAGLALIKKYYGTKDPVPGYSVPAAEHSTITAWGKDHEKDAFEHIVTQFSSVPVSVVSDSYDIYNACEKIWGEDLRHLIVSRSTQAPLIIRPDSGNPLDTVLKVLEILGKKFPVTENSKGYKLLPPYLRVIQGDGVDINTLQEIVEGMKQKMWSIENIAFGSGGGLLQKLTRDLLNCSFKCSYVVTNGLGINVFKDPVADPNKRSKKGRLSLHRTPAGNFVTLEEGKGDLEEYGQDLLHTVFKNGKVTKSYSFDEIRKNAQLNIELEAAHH
Procedure: Assay Conditions: The control compound is dissolved in DMSO. The dilution of the compounds was first performed in 100% DMSO with the highest concentration at 0.01 mM. […] For NAMPT, the compounds (see 2.2) were preincubated with NAMPT enzyme (see 2.3.1) in for 30 minutes. […] The final concentration of DMSO in all reactions was 1%. Fluorescence intensity was measured at an excitation of 340 nm and an emission of 460 nm using a Tecan Infinite M1000 microplate reader.
Data Analysis: NAMPT activity assays were performed in duplicates at each concentration. […] In the absence of the compound, the fluorescent intensity (Ft) in each data set was defined as 100% activity. In the absence of NAMPT, the fluorescent intensity (Fb) in each data set was defined as 0% activity. The percent activity in the presence of each compound was calculated according to the following equation: % activity=(F−Fb)/(Ft−Fb), where F=the fluorescent intensity in the presence of the compound. The values of percentage activity were plotted on a bar graph.

Turning to `O=C(/C=C/c1cccnc1)NCCCCC1CCN(C(=O)c2ccccc2)CC1` [FK-866], the inhibition at 0.001 µM amounted to 4%, the inhibition at 0.01 µM worked out at 57% and the inhibition at 0.1 µM amounted to 100%. Besides, under “0.001 μM”, the “Background (Fluorescence count) Repeat 1” value is recorded as 450, the “Background (Fluorescence count) Repeat 2” value is on record as 442, the “NAMPT Activity (Fluorescence Intensity) Repeat 1” value was found to be 3328 and the “NAMPT Activity (Fluorescence Intensity) Repeat 2” value is given as 3345. For the same molecule, for the setting “0.01 μM”, the “Background (Fluorescence count) Repeat 1” value is on record as 454, the “Background (Fluorescence count) Repeat 2” value was found to be 461, the “NAMPT Activity (Fluorescence Intensity) Repeat 1” value is recorded as 1750 and the “NAMPT Activity (Fluorescence Intensity) Repeat 2” value is listed as 1766. Further, under “0.1 μM”, the “Background (Fluorescence count) Repeat 1” value was found to be 440, the “Background (Fluorescence count) Repeat 2” value worked out at 442, the “NAMPT Activity (Fluorescence Intensity) Repeat 1” value turned out to be 463 and the “NAMPT Activity (Fluorescence Intensity) Repeat 2” value came out at 468. Further, for the setting “read-out: % Activity Repeat 1”, the activity at 0.001 µM amounted to 95%, the activity at 0.01 µM was determined as 42% and the activity at 0.1 µM came to 0%. Further, where the note is “read-out: % Activity Repeat 2”, the activity at 0.001 µM worked out at 96%, the activity at 0.01 µM stood at 43% and the activity at 0.1 µM was 0%.
